The values that follow are results of earlier work, collected in patent US20080286363A1, “Pharmaceutical Compositions for the Treatment of Inflammatory and Obstructive Airways Diseases” (priority 2005, published 2008).

SMILES strings stand for the structures.

The conditions of this series: aerosol formulation, single administration of a metered dose, asthma.

`C[N+]1(C)CCC(OC(=O)C(O)(c2ccccc2)C2CCCC2)C1.[Br-]` (racemic) [Compound B1, 3-[(Cyclopentyl-hydroxyphenylacetyl)oxy]-1,1-dimethylpyrrolidinium bromide]: the bronchodilation duration entry is given as “up to 12 hours”.
